According to publication PMC12028158, “Synthesis and In Vitro Evaluation of the Anticancer Effect of Novel Phosphonium Vindoline Derivatives” (International Journal of Molecular Sciences, 2025):

How the values were obtained:
Type in all cases: cell-based
[1] = system: NCI/ADR-RES; assay: NCI60 five-dose screen; conditions: Homo sapiens
[2] = system: IGROV1; assay: NCI60 one-dose screen; conditions: Homo sapiens, IGROV-1, read-out: Growth percent
[3] = system: UACC-62; assay: NCI60 five-dose screen; conditions: Homo sapiens, UACC-62
[4] = system: MDA-MB-435; assay: NCI60 five-dose screen; conditions: Homo sapiens, MDA-MB-435
[5] = system: SN12C; assay: NCI60 five-dose screen; conditions: Homo sapiens
[6] = system: BT-549; assay: NCI60 five-dose screen; conditions: Homo sapiens, BT-549
[7] = system: NCI-H226; assay: NCI60 five-dose screen; conditions: Homo sapiens, NCI-H226
[8] = system: CAKI-1; assay: NCI60 five-dose screen; conditions: Homo sapiens, CAKI-1
[9] = system: HCT-15; assay: NCI60 one-dose screen; conditions: Homo sapiens, HCT-15, read-out: Growth percent
[10] = system: Breast Cancer panel; assay: NCI60 five-dose screen, panel mean; conditions: Homo sapiens, read-out: Mean GI50
[11] = system: MALME-3M; assay: NCI60 one-dose screen; conditions: Homo sapiens, Malme-3M, read-out: Growth percent
[12] = system: SK-MEL-5; assay: NCI60 five-dose screen; conditions: Homo sapiens, SK-MEL-5
[13] = system: SK-MEL-28; assay: NCI60 five-dose screen; conditions: Homo sapiens, SK-MEL-28
[14] = system: 786-0; assay: NCI60 five-dose screen; conditions: Homo sapiens, 786-0
[15] = system: EKVX; assay: NCI60 five-dose screen; conditions: Homo sapiens
[16] = system: HCT-116; assay: NCI60 five-dose screen; conditions: Homo sapiens, HCT-116
[17] = system: SF-539; assay: NCI60 one-dose screen; conditions: Homo sapiens, SF-539, read-out: Growth percent
[18] = system: BT-549; assay: NCI60 one-dose screen; conditions: Homo sapiens, BT-549, read-out: Growth percent
[19] = system: NCI/ADR-RES; assay: NCI60 one-dose screen; conditions: Homo sapiens, read-out: Growth percent
[20] = system: OVCAR-4; assay: NCI60 five-dose screen; conditions: Homo sapiens, OVCAR-4
[21] = system: M14; assay: NCI60 five-dose screen; conditions: Homo sapiens, M14
[22] = system: K-562; assay: NCI60 five-dose screen; conditions: Homo sapiens, K562
[23] = system: KM12; assay: NCI60 one-dose screen; conditions: Homo sapiens, KM12, read-out: Growth percent
[24] = system: SF-268; assay: NCI60 five-dose screen; conditions: Homo sapiens, SF-268
[25] = system: HCT-15; assay: NCI60 five-dose screen; conditions: Homo sapiens, HCT-15
[26] = system: UACC-62; assay: NCI60 one-dose screen; conditions: Homo sapiens, UACC-62, read-out: Growth percent
[27] = system: HS 578T; assay: NCI60 five-dose screen; conditions: Homo sapiens, Hs-578T
[28] = system: NCI-H460; assay: NCI60 one-dose screen; conditions: Homo sapiens, NCI-H460, read-out: Growth percent
[29] = system: OVCAR-8; assay: NCI60 one-dose screen; conditions: Homo sapiens, OVCAR-8, read-out: Growth percent
[30] = system: MOLT-4; assay: NCI60 one-dose screen; conditions: Homo sapiens, MOLT-4, read-out: Growth percent
[31] = system: HL-60(TB); assay: NCI60 five-dose screen; conditions: Homo sapiens, HL-60
[32] = system: RXF 393; assay: NCI60 five-dose screen; conditions: Homo sapiens, RXF 393
[33] = system: 786-0; assay: NCI60 one-dose screen; conditions: Homo sapiens, 786-0, read-out: Growth percent
[34] = system: HOP-92; assay: NCI60 one-dose screen; conditions: Homo sapiens, HOP-92, read-out: Growth percent
[35] = system: SK-MEL-5; assay: NCI60 one-dose screen; conditions: Homo sapiens, SK-MEL-5, read-out: Growth percent
[36] = system: IGROV1; assay: NCI60 five-dose screen; conditions: Homo sapiens, IGROV-1
[37] = system: MDA-MB-231/ATCC; assay: NCI60 one-dose screen; conditions: Homo sapiens, MDA-MB-231, read-out: Growth percent
[38] = system: CNS Cancer panel; assay: NCI60 five-dose screen, panel mean; conditions: Homo sapiens, read-out: Mean GI50
[39] = system: SN12C; assay: NCI60 one-dose screen; conditions: Homo sapiens, read-out: Growth percent
[40] = system: A498; assay: NCI60 one-dose screen; conditions: Homo sapiens, A498, read-out: Growth percent
[41] = system: 60 human tumor cell lines (NCI60); assay: NCI60 one-dose screen, overall mean; conditions: Homo sapiens, 60 cell, read-out: Mean growth percent
[42] = system: DU-145; assay: NCI60 five-dose screen; conditions: Homo sapiens, DU-145
[43] = system: A498; assay: NCI60 five-dose screen; conditions: Homo sapiens, A498
[44] = system: SR; assay: NCI60 one-dose screen; conditions: Homo sapiens, read-out: Growth percent
[45] = system: Leukemia panel; assay: NCI60 five-dose screen, panel mean; conditions: Homo sapiens, read-out: Mean GI50
[46] = system: NCI-H322M; assay: NCI60 one-dose screen; conditions: Homo sapiens, read-out: Growth percent
[47] = system: NCI-H23; assay: NCI60 one-dose screen; conditions: Homo sapiens, NCI-H23, read-out: Growth percent

Work on `CC[C@]12C=CCN3CC[C@@]4(c5ccc(OC)cc5N(C)[C@H]4[C@@](O)(C(=O)OC)[C@@H]1OC(=O)CCC[P+](c1ccc(F)cc1)(c1ccc(F)cc1)c1ccc(F)cc1)[C@@H]32` [9c] yielded a GI50 [1] of over 48.5 µM, an activity at 10 µM [2] of -15% and a GI50 [3] of 6.05 µM. It also gave a GI50 [4] of 8.14 µM, a GI50 [5] of 14.8 µM and a GI50 [6] of 8.13 µM. It also gave a GI50 [7] of 24.2 µM, a GI50 [8] of over 48.5 µM and an activity at 10 µM [9] of 99.6%. For the same compound, the GI50 [10] was 8.04 µM, the activity at 10 µM [11] was -32.6% and the GI50 [12] was 8.26 µM. For the same compound, the GI50 [13] was 5.34 µM, the GI50 [14] was over 48.5 µM and the GI50 [15] was 19.4 µM. For the same compound, the GI50 [16] was 14.8 µM, the activity at 10 µM [17] was 24.2% and the activity at 10 µM [18] was -9.4%. The activity at 10 µM [19] was 104%, the GI50 [20] was 16.2 µM and the GI50 [21] was 9.1 µM. The GI50 [22] was 9.83 µM, the activity at 10 µM [23] was 21.3% and the GI50 [24] was 15 µM. It also gave a GI50 [25] of over 48.5 µM, an activity at 10 µM [26] of -59.5% and a GI50 [27] of 11.8 µM. For the same compound, the activity at 10 µM [28] was 30.9%, the activity at 10 µM [29] was 28% and the activity at 10 µM [30] was 37.1%. It also gave a GI50 [31] of 1.77 µM, a GI50 [32] of 8.46 µM and an activity at 10 µM [33] of 80.9%. The activity at 10 µM [34] was -6.2%, the activity at 10 µM [35] was -38.3% and the GI50 [36] was 7.09 µM. For the same compound, the activity at 10 µM [37] was 22%, the GI50 [38] was 20.2 µM and the activity at 10 µM [39] was 16.6%. For the same compound, the activity at 10 µM [40] was 101%, the activity at 10 µM [41] was 26.3% and the GI50 [42] was 23.7 µM. The GI50 [43] was over 48.5 µM, the activity at 10 µM [44] was 42.6% and the GI50 [45] was 7.25 µM. It also gave an activity at 10 µM [46] of 65.2% and an activity at 10 µM [47] of 35.5%.
